According to a melting point compilation (Tetko et al.; mined from patent text by program, amines drawn as free bases though some values may be those of a salt):

| Structure (SMILES) | melting point [°C] |
| --- | --- |
| CCn1cc(C(=O)O)c(=O)c2cc(F)c(N3CCNC(c4cc5ccccc5o4)C3)cc21 (configuration not stated) | 226 to 228 |
| CCOC(=O)c1[nH]c2c(C)ccc(Cl)c2c1C | 118 to 119 |
| Nc1nc(Nc2ccc(S(N)(=O)=O)cc2)sc1C(=O)c1c(F)cccc1F | 258 to 260 |
| O=C(OCc1ccccc1)C1C(=O)N(Cc2ccc(Cl)c(Cl)c2)C(=O)c2cccn21 (configuration not stated) | 104 to 106 |
| CCOC(=S)c1ncncc1C | 99 to 100 |
| CN1Cc2c(-c3noc(CCl)n3)ncn2-c2ccc(Cl)cc2C1=O | 229 |
| CCCCCCCCCCOc1ccc(NC(=O)c2ccc(O)cc2)cc1OCCCCCCCCCC | 137 |
| CN(C)CCC(=O)Nc1cccc(NC(=O)Nc2ccc(N(CCCl)CCCl)cc2)c1 | 88 to 90 |
| O=C(c1cc(C(F)(F)F)cc(C(F)(F)F)c1)N1CCC2(CC1)C(=O)NCN2c1ccc(Cl)c(Cl)c1 | 220 to 222 |
| Cc1nccnc1OCC1COC(C)(C)O1 (configuration not stated) | 77 to 78 |
| Cn1cc(C2=C(c3cn(CCCNc4ncccc4[N+](=O)[O-])c4ccccc34)C(=O)NC2=O)c2ccccc21 | 218 to 220 |
| O=C(O)C(CC1CCCCC1)c1ccc(OCc2ccc3ccccc3n2)cc1 (configuration not stated) | 148 to 150 |
| CC(C(=O)O)C1CCCCC1 (configuration not stated) | 63 to 64 |
| Cn1cc(C(=S)NCc2ccc(Cl)cc2)c(=O)c2cc(I)ccc21 | 153 to 155 |
| CC1(C)C(=O)Nc2cc3oc(Cc4ccncc4)nc3cc21 | 208 to 211 |
| Cn1ncc2cc(NC(=O)Nc3ccc(C(F)(F)F)cc3)ccc21 | 252 to 254 |
| COc1c(Cl)cc(C(=O)Nc2ccc(F)cc2)c(Nc2ccccc2)c1Cl | 220 |
| CCCCCCCCCCCCCCCC(=O)OCc1cc2c(s1)-c1ccccc1OC2c1ccccc1 (configuration not stated) | 64 to 65 |
| CCOC(=O)CCc1cc(-c2ccc(C)cc2)n(-c2ccc(S(N)(=O)=O)cc2)n1 | 116 to 117 |
| COc1c(NC(=O)Nc2ccc(-c3ccc(CN4CCOCC4)nc3)c3ccccc23)cc(C(C)(C)C)cc1NS(=O)(=O)c1ccccc1 | 206 to 207 |
| NC1(CF)CCCNC1=O (configuration not stated) | 132 |
| CN(C)C1(Cc2ccccc2)CCC(O)(c2csc3ccccc23)CC1 (configuration not stated) | 158 to 160 |
| O=C(NCc1cccnc1)c1ccc2n1Cc1ccccc1N(C(=O)c1ccc(-c3ccccc3CN3CCCCC3)cc1)C2 | 199 to 202 |
| CCCCCCCCOc1ccc(OCc2ccc(C(=O)OC3CCC(CCC)(CCC)OC3=O)cc2)cc1 (configuration not stated) | 65 |
| O=c1[nH]c2cc(Cl)c(Cl)c(-c3ccncc3)c2[nH]c1=O | > 300 |

Other lines, results leading:

| melting point [°C] | Structure (SMILES) |
| --- | --- |
| 161 to 163 | CCCCC(=N)NC(=O)Nc1cccc([N+](=O)[O-])c1 |
| 178 to 184 | CS(=O)(=O)c1cccc(C(=O)Nc2ccc(-n3nc(C(F)(F)F)cc3C3CC3)cc2)c1 |
| 223 to 225 | CCC(c1oc2ccccc2c(=O)c1-c1ccccc1)n1cnc2c(N)ncnc21 (configuration not stated) |
| 88 to 90 | CCOC(=O)c1c(-c2ccccc2)c(-c2ccc(F)cc2)c(C=O)n1C(C)C |
| 181 to 183 | O=C(O)Cc1c(C(=O)c2ccc(Cl)cc2)[nH]c2cc(Cl)ccc12 |
| 103 to 105 | CCOC(=O)c1cc(C#N)c(C)nc1NC |
| 178 to 180 | COc1ccc(Cc2cc(C3CCN(C(=O)Nc4ccccc4)CC3)nc(N)n2)cc1 |
| 104 to 106 | CC(=O)c1c(O)cccc1OCC(O)COc1cc(C)ccc1C (configuration not stated) |
| 67 to 69 | CCOC(=O)Cc1ccnc2c([N+](=O)[O-])cccc12 |
| 196 to 210 | CCn1cc(C(=O)O)c(=O)c2cc(F)c(N3CC(C)(NC(=O)C(F)(F)F)C3)c(F)c21 |
| 146 to 150 | CNCC(O)COc1cc(-c2ccc(C)cc2)nc2cc(C)ccc12 (racemic) |
| 185 to 190 | CCCCOC(=O)c1cccc(-c2c3nn(-c4ccc(Cl)cc4)c(=O)c-3c[nH]c2C)c1 |
